US6407265B2, “Tin polyoxaalkanecarboxylates and compositions containing them” (priority 1998, dated 2002)

Key:
MCF-7 (mammary cancer) = type: cell-based, human; conditions: in vitro, MCF-7 mammary cancer cell line
Description: (§1) The ID50 inhibition doses in ng/ml of the tested compounds are given in the table as well as those for some known reference compounds.

EVSA-T (mammary cancer) = type: cell-based, human; conditions: in vitro, EVSA-T mammary cancer cell line
Description: as §1

WiDr (colon carcinoma) = type: cell-based, human; conditions: in vitro, WiDr colon carcinoma cell line
IGROV (ovarian cancer) = type: cell-based, human; conditions: in vitro, IGROV ovarian cancer cell line
M19 MEL (melanoma) = type: cell-based, human; conditions: in vitro, M19 MEL melanoma cell line
A 498 (renal cancer) = type: cell-based, human; conditions: in vitro, A 498 renal cancer cell line
[1] = system: H226 (non small cell lung cancer); type: cell-based, human; conditions: in vitro, H226 non small cell lung cancer cell line
[2] = Stability in the presence of water (117Sn NMR); type: physicochemical; conditions: CD3CD2OD solution, increasing amounts of D2O added, resonance regularly slightly shifted
Protocol: The stability in the presence of water of four compounds, 6, 8, 9 and 12, was determined.

**Q.** What does the source list for `CCC[CH2][Sn]([CH2]CCC)([CH2]CCC)[O]C(=O)c1ccc2c(c1)OCCOCCOCCOCCO2` [Compound 6, tri-n-butyltin 4,7,10,13,16-pentaoxadicyclo[13.4.0]cosa-1,3 (17),18-triene-1-carboxylate]?
**A.** ID50 inhibition dose MCF-7 (MCF-7 (mammary cancer)): <0.003 µg/mL; ID50 inhibition dose EVSA-T (EVSA-T (mammary cancer)): <0.003 µg/mL; ID50 inhibition dose WiDr (WiDr (colon carcinoma)): <0.003 µg/mL; ID50 inhibition dose IGROV (IGROV (ovarian cancer)): <0.003 µg/mL; ID50 inhibition dose M19 (M19 MEL (melanoma)): <0.003 µg/mL; ID50 inhibition dose A498 (A 498 (renal cancer)): <0.003 µg/mL; ID50 inhibition dose H226 [1]: <0.003 µg/mL; Stability in the presence of water [2]: single resonance

**Q.** For `COCCOCC(=O)[O][Sn]([c]1ccccc1)([c]1ccccc1)[c]1ccccc1` [Compound 8, triphenyltin 3,6-diheptanoate], which “ID50 inhibition dose MCF-7” value (MCF-7 (mammary cancer)) is on record?
**A.** Its value is 0.013 µg/mL.

**Q.** What about the “ID50 inhibition dose EVSA-T” value (EVSA-T (mammary cancer)) of the same compound?
**A.** Its value is 0.012 µg/mL.

**Q.** What about the “ID50 inhibition dose WiDr” value (WiDr (colon carcinoma)) of the same compound?
**A.** The value was 0.034 µg/mL.

**Q.** What about the “ID50 inhibition dose IGROV” value (IGROV (ovarian cancer)) of the same compound?
**A.** Its value is 0.037 µg/mL.

**Q.** What about the “ID50 inhibition dose M19” value (M19 MEL (melanoma)) of the same compound?
**A.** Its value is 0.031 µg/mL.

**Q.** What about the “ID50 inhibition dose A498” value (A 498 (renal cancer)) of the same compound?
**A.** The value was 0.032 µg/mL.

**Q.** And the “ID50 inhibition dose H226” value [1]?
**A.** The value was 0.033 µg/mL.

**Q.** What about the “Stability in the presence of water” value [2] of the same compound?
**A.** Its value is “single resonance”.

**Q.** For `CCC[CH2][Sn]([CH2]CCC)([CH2]CCC)[O]C(=O)COCCOC` [Compound 9, tri-n-butyltin 3,6-diheptanoate], which “ID50 inhibition dose MCF-7” value (MCF-7 (mammary cancer)) is on record?
**A.** The value was 0.032 µg/mL.

**Q.** And the “ID50 inhibition dose EVSA-T” value (EVSA-T (mammary cancer))?
**A.** The value was 0.04 µg/mL.

**Q.** What about the “ID50 inhibition dose WiDr” value (WiDr (colon carcinoma)) of the same compound?
**A.** Its value is 0.082 µg/mL.

**Q.** What about the “ID50 inhibition dose IGROV” value (IGROV (ovarian cancer)) of the same compound?
**A.** The value was 0.084 µg/mL.

**Q.** And the “ID50 inhibition dose M19” value (M19 MEL (melanoma))?
**A.** The value was 0.09 µg/mL.

**Q.** And the “ID50 inhibition dose A498” value (A 498 (renal cancer))?
**A.** The value was 0.153 µg/mL.

**Q.** And the “ID50 inhibition dose H226” value [1]?
**A.** The value was 0.061 µg/mL.

**Q.** What about the “Stability in the presence of water” value [2] of the same compound?
**A.** Its value is “single resonance”.

**Q.** With “bis{di-n-butyl-[4,7,10,13,16,19-hexaoxadicyclo[16.4.0]dicosa-1,3(20),21-triene-1-carboxylato]tin}oxide [Compound 4]” as the compound, how does the “ID50 inhibition dose MCF-7” value (MCF-7 (mammary cancer)) read?
**A.** Its value is 0.036 µg/mL.

**Q.** What about the “ID50 inhibition dose EVSA-T” value (EVSA-T (mammary cancer)) of the same compound?
**A.** The value was 0.046 µg/mL.

**Q.** What about the “ID50 inhibition dose WiDr” value (WiDr (colon carcinoma)) of the same compound?
**A.** The value was 0.239 µg/mL.

**Q.** And the “ID50 inhibition dose IGROV” value (IGROV (ovarian cancer))?
**A.** Its value is 0.082 µg/mL.

**Q.** What about the “ID50 inhibition dose M19” value (M19 MEL (melanoma)) of the same compound?
**A.** The value was 0.068 µg/mL.

**Q.** What about the “ID50 inhibition dose A498” value (A 498 (renal cancer)) of the same compound?
**A.** Its value is 0.126 µg/mL.

**Q.** What about the “ID50 inhibition dose H226” value [1] of the same compound?
**A.** Its value is 0.073 µg/mL.

**Q.** Which “ID50 inhibition dose MCF-7” value (MCF-7 (mammary cancer)) does the source give for “di-n-butyltin bis (3,6,9-trioxadecanoate) [Compound 14]” here?
**A.** Its value is 0.086 µg/mL.

**Q.** And the “ID50 inhibition dose EVSA-T” value (EVSA-T (mammary cancer))?
**A.** The value was 0.066 µg/mL.

**Q.** What about the “ID50 inhibition dose WiDr” value (WiDr (colon carcinoma)) of the same compound?
**A.** The value was 0.495 µg/mL.

**Q.** What about the “ID50 inhibition dose IGROV” value (IGROV (ovarian cancer)) of the same compound?
**A.** The value was 0.178 µg/mL.

**Q.** What about the “ID50 inhibition dose M19” value (M19 MEL (melanoma)) of the same compound?
**A.** Its value is 0.167 µg/mL.

**Q.** What about the “ID50 inhibition dose A498” value (A 498 (renal cancer)) of the same compound?
**A.** The value was 0.145 µg/mL.

**Q.** What about the “ID50 inhibition dose H226” value [1] of the same compound?
**A.** Its value is 0.28 µg/mL.

**Q.** Which “ID50 inhibition dose MCF-7” value (MCF-7 (mammary cancer)) does the source give for “triphenyltin 3,6,9-trioxadecanoate [Compound 12]” here?
**A.** The value was 0.009 µg/mL.

**Q.** What about the “ID50 inhibition dose EVSA-T” value (EVSA-T (mammary cancer)) of the same compound?
**A.** Its value is 0.009 µg/mL.

**Q.** What about the “ID50 inhibition dose WiDr” value (WiDr (colon carcinoma)) of the same compound?
**A.** The value was 0.019 µg/mL.

**Q.** And the “ID50 inhibition dose IGROV” value (IGROV (ovarian cancer))?
**A.** Its value is 0.033 µg/mL.

**Q.** And the “ID50 inhibition dose M19” value (M19 MEL (melanoma))?
**A.** The value was 0.024 µg/mL.

**Q.** What about the “ID50 inhibition dose A498” value (A 498 (renal cancer)) of the same compound?
**A.** Its value is 0.021 µg/mL.

**Q.** What about the “ID50 inhibition dose H226” value [1] of the same compound?
**A.** The value was 0.025 µg/mL.

**Q.** What about the “Stability in the presence of water” value [2] of the same compound?
**A.** Its value is “single resonance”.
